Experimental data reported in EP0248954B1, “Process for reducing the amount of DDT-related impurities in 1,1-bis(chlorophenyl)-2,2,2-trichloro-ethanol” (ROHM AND HAAS COMPANY, priority 1986, dated 1987).

Assays:
Assay type in all cases: physicochemical
[1] = Single-stage extraction: partitioning of dicofol technical between n-heptane and 90% aqueous methanol
Description: A 50g sample of the desired dicofol solution was taken in a stoppered 100 ml graduated cylinder. […] They were then shaken well for two minutes. The samples were placed in an ice-water bath for 30 minutes. After the cooling period all samples were again shaken for 2 minutes. The samples were returned to the bath and allowed to equilibrate for 30 minutes. The samples were then removed from the bath and volumes recorded (Table I - Columns 2 and 3). The layers were then separated and each layer weighed (Columns 4 and 5). The separated layers were concentrated under vacuum (70°C, 1 mm Hg), weighed (columns 6 and 7) and analyzed (Table II).
In subsequent experiments, the partitioning of dicofol technical between n-heptane and 90% aqueous methanol was also evaluated at 23°C. The combined results from the 0°C and 23°C experiments are presented in Table IV where the results are expressed as distribution coefficients for dicofol and the two principal DDTr's found in dicofol technical, o,p'-DDE and p,p'-Cl-DDT. In all cases, the extractability of DDTr's exceeded that of dicofol by a significant margin.

[2] = Single-stage extraction: dicofol technical in aqueous methanols of various water content contacted with n-heptane; conditions: 50g of 33% solution of dicofol technical, 40 g n-heptane, 23°C
Description: The effect on distribution coefficients and selectivities of the amount of water in the methanol was determined. […] All distribution coefficients rise as the percentage of water increases. The selectivities rise initially but then begin to decrease at water levels higher than a maximum range. Importantly, if the water in the methanol is omitted, the addition of practical concentrations of dicofol technical causes the phases to coalesce.

[3] = Single-stage extraction: dicofol technical in aqueous ethanol of various concentrations partitioned with heptane; conditions: 30% dicofol technical solution, 50 grams, 40 grams heptane, 23°C
Description: Alternative solvent systems were evaluated. The distribution coefficients were determined by partitioning dicofol technical.
In Table VII, n-heptane was used as the extractant and different raffinate phase solvents were evaluated. In Table VIII, ethanol was used as the raffinate solvent and different extracting solvents were evaluated. In Table IX, n-heptane was used as the extractant and ethanol at different aqueous concentrations was used as the raffinate solvent. In the experiments set forth in Table IX, 30% dicofol technical solution (in the raffinate layer) was used and 50 grams of this solution was partitioned with 40 grams of the extracting solvent. In Table X, methanol was used as the raffinate solvent and different extracting solvents were evaluated. And in Table XI, using n-heptane as the extracting solvent and aqueous methanol as the raffinate solvent, the partition coefficients were determined as a function of temperature and concentration of dicofol.

[4] = dicofol technical spiked with 0.25 Wt % p,p'-DDD and separately p,p'-DDT, 50g of 33% solution in 90% aqueous methanol, 40g n-heptane, 23°C
[5] = dicofol technical spiked with 0.72 Wt % p,p'-DDD and separately p,p'-DDT, 50g of 33% solution in 90% aqueous methanol, 40g n-heptane, 23°C
[6] = dicofol technical spiked with 1.80 Wt % p,p'-DDD and separately p,p'-DDT, 50g of 33% solution in 90% aqueous methanol, 40g n-heptane, 23°C
[7] = heptane layer / raffinate layer, 50 g of dicofol solution conc. 8.4 in 90% aqueous methanol, 20 g heptane, 0 °C
[8] = heptane layer / raffinate layer, 50 g of dicofol solution conc. 10 in 90% aqueous methanol, 40 g heptane, 23 °C
[9] = heptane layer / raffinate layer, 50 g of dicofol solution conc. 16.7 in 90% aqueous methanol, 20 g heptane, 0 °C
[10] = heptane layer / raffinate layer, 50 g of dicofol solution conc. 16.7 in 90% aqueous methanol, 20 g heptane, 23 °C
[11] = heptane layer / raffinate layer, 50 g of dicofol solution conc. 20 in 90% aqueous methanol, 40 g heptane, 23 °C
[12] = heptane layer / raffinate layer, 50 g of dicofol solution conc. 30 in 90% aqueous methanol, 40 g heptane, 23 °C
[13] = heptane layer / raffinate layer, 50 g of dicofol solution conc. 33 in 90% aqueous methanol, 20 g heptane, 0 °C
[14] = heptane layer / raffinate layer, 50 g of dicofol solution conc. 40 in 90% aqueous methanol, 40 g heptane, 23 °C
[15] = heptane layer / raffinate layer, 50 g of dicofol solution conc. 50 in 90% aqueous methanol, 20 g heptane, 0 °C
[16] = heptane layer / raffinate layer, 50 g of dicofol solution conc. 50 in 90% aqueous methanol, 40 g heptane, 23 °C
[17] = ratio of DDTr D.C. to that of dicofol, dicofol solution conc. 8.4 in 90% aqueous methanol, 20 g heptane, 0 °C
[18] = ratio of DDTr D.C. to that of dicofol, dicofol solution conc. 10 in 90% aqueous methanol, 40 g heptane, 23 °C
[19] = ratio of DDTr D.C. to that of dicofol, dicofol solution conc. 16.7 in 90% aqueous methanol, 20 g heptane, 0 °C
[20] = ratio of DDTr D.C. to that of dicofol, dicofol solution conc. 16.7 in 90% aqueous methanol, 20 g heptane, 23 °C
[21] = ratio of DDTr D.C. to that of dicofol, dicofol solution conc. 20 in 90% aqueous methanol, 40 g heptane, 23 °C
[22] = ratio of DDTr D.C. to that of dicofol, dicofol solution conc. 30 in 90% aqueous methanol, 40 g heptane, 23 °C
[23] = ratio of DDTr D.C. to that of dicofol, dicofol solution conc. 33 in 90% aqueous methanol, 20 g heptane, 0 °C
[24] = ratio of DDTr D.C. to that of dicofol, dicofol solution conc. 40 in 90% aqueous methanol, 40 g heptane, 23 °C
[25] = ratio of DDTr D.C. to that of dicofol, dicofol solution conc. 50 in 90% aqueous methanol, 20 g heptane, 0 °C
[26] = ratio of DDTr D.C. to that of dicofol, dicofol solution conc. 50 in 90% aqueous methanol, 40 g heptane, 23 °C

Row | SMILES | Distribution coefficient (D.C.) [1, 4] | Selectivity (Sel.) [1, 4] | Distribution coefficient (D.C.) [1, 5] | Selectivity (Sel.) [1, 5] | Distribution coefficient (D.C.) [1, 6] | Selectivity (Sel.) [1, 6] | Distribution coefficient (D.C.) [1, 7] | Distribution coefficient (D.C.) [1, 8] | Distribution coefficient (D.C.) [1, 9] | Distribution coefficient (D.C.) [1, 10] | Distribution coefficient (D.C.) [1, 11] | Distribution coefficient (D.C.) [1, 12] | Distribution coefficient (D.C.) [1, 13] | Distribution coefficient (D.C.) [1, 14] | Distribution coefficient (D.C.) [1, 15] | Distribution coefficient (D.C.) [1, 16] | Selectivity (Sel.) [1, 17] | Selectivity (Sel.) [1, 18] | Selectivity (Sel.) [1, 19] | Selectivity (Sel.) [1, 20] | further results
1 | ClC(Cl)=C(c1ccc(Cl)cc1)c1ccccc1Cl [o,p'-DDE] | 2.4 | 7.6 | 2.4 | 7.2 | 2.4 | 6.8 | 3.6 | 3.9 | 3.2 | 3.4 | 3.5 | 2.4 | 1.8 | 2.32 | 1.3 | 1.66 | 17.3 | 12.2 | 16.1 | 10.1 | Selectivity (Sel.) [1, 21]: 11.0; Selectivity (Sel.) [1, 22]: 7.9; Selectivity (Sel.) [1, 23]: 10.5; Selectivity (Sel.) [1, 24]: 7.2; Selectivity (Sel.) [1, 25]: 7.9; Selectivity (Sel.) [1, 26]: 5.3; Distribution coefficient (D.C.) ([2]; 4 % H₂O in Aq. MeOH): 1.5; Selectivity (Sel.) ([2]; 4 % H₂O in Aq. MeOH): 5.7; Distribution coefficient (D.C.) ([2]; 8 % H₂O in Aq. MeOH): 2.2; Selectivity (Sel.) ([2]; 8 % H₂O in Aq. MeOH): 7.7; Distribution coefficient (D.C.) ([2]; 12 % H₂O in Aq. MeOH): 3.1; Selectivity (Sel.) ([2]; 12 % H₂O in Aq. MeOH): 8.3; Distribution coefficient (D.C.) ([2]; 16 % H₂O in Aq. MeOH): 3.6; Selectivity (Sel.) ([2]; 16 % H₂O in Aq. MeOH): 6.1; Distribution coefficient (D.C.) ([3]; 85% aqueous ethanol): 2.06; Selectivity (Sel.) ([3]; 85% aqueous ethanol): 2.78; Distribution coefficient (D.C.) ([3]; 87% aqueous ethanol): 1.28; Selectivity (Sel.) ([3]; 87% aqueous ethanol): 2.01; Distribution coefficient (D.C.) ([3]; 90% aqueous ethanol): 1.08; Selectivity (Sel.) ([3]; 90% aqueous ethanol): 1.42
2 | Clc1ccc(C(Cl)(c2ccc(Cl)cc2)C(Cl)(Cl)Cl)cc1 [p,p'-Cl-DDT, 1,1-bis-(4-chlorophenyl)-1,2,2,2-tetrachloroethane] | 3.7 | 11.8 | 3.8 | 11.4 | 3.8 | 10.8 | 9.1 | 7.5 | 4.4 | 4.1 | 5.3 | 4.0 | 2.6 | 2.8 | 1.5 | 2.1 | 23.3 | 23.4 | 22.4 | 12.2 | Selectivity (Sel.) [1, 21]: 16.8; Selectivity (Sel.) [1, 22]: 13.1; Selectivity (Sel.) [1, 23]: 14.9; Selectivity (Sel.) [1, 24]: 8.6; Selectivity (Sel.) [1, 25]: 9.4; Selectivity (Sel.) [1, 26]: 6.8; Distribution coefficient (D.C.) ([2]; 4 % H₂O in Aq. MeOH): 1.9; Selectivity (Sel.) ([2]; 4 % H₂O in Aq. MeOH): 7.0; Distribution coefficient (D.C.) ([2]; 8 % H₂O in Aq. MeOH): 2.9; Selectivity (Sel.) ([2]; 8 % H₂O in Aq. MeOH): 10.1; Distribution coefficient (D.C.) ([2]; 12 % H₂O in Aq. MeOH): 4.6; Selectivity (Sel.) ([2]; 12 % H₂O in Aq. MeOH): 12.2; Distribution coefficient (D.C.) ([2]; 16 % H₂O in Aq. MeOH): 6.8; Selectivity (Sel.) ([2]; 16 % H₂O in Aq. MeOH): 11.4; Distribution coefficient (D.C.) ([3]; 85% aqueous ethanol): 1.65; Selectivity (Sel.) ([3]; 85% aqueous ethanol): 2.22; Distribution coefficient (D.C.) ([3]; 87% aqueous ethanol): 1.48; Selectivity (Sel.) ([3]; 87% aqueous ethanol): 2.33; Distribution coefficient (D.C.) ([3]; 90% aqueous ethanol): 0.91; Selectivity (Sel.) ([3]; 90% aqueous ethanol): 1.20
3 | Clc1ccc(C(c2ccc(Cl)cc2)C(Cl)Cl)cc1 [p,p'-DDD, 1,1-bis-(4-chlorophenyl)-2,2-dichloroethane] | 0.66 | 2.1 | 0.71 | 2.1 | 0.79 | 2.2 |  |  |  |  |  |  |  |  |  |  |  |  |  |  | 
4 | Clc1ccc(C(c2ccc(Cl)cc2)C(Cl)(Cl)Cl)cc1 [p,p'-DDT, 1,1-bis-(4-chlorophenyl)-2,2,2-trichloroethane] | 1.9 | 5.9 | 1.9 | 5.6 | 2.1 | 6.0 |  |  |  |  |  |  |  |  |  |  |  |  |  |  | 
